In data set [1] the test system is P. Aeruginosa and E. Aerogenes. The data set is described as follows: Example 2: bactericidal efficacy of NaOCl added to DMH-treated pulp slurry. Format: cell-based. The note with it: for Final Bacteria: NaOCl added to pulp slurry (DMH-treated for 1:1 system). The protocol:
(§1) The addition of 5,5-dimethylhydantoin (DMH) to sodium hypochlorite solutions enhances the biocidal activity of sodium hypochlorite. The conditions of this experiment were a modification of ASTM E 600-91. Two biocide solutions were evaluated: NaOCl and NaOCl mixed with DMH in a 0.25:1 molar ratio. The NaOCl and the DMH were mixed prior to pulp introduction. The biocides were introduced to the pulp slurry 10 minutes prior to inoculation with 2×10^6 cfu/ml P. Aeruginosa and E. Aerogenes. The pulp slurry consisted of 1.3% ground aspen wood pulp and 200 ppm rosin adjusted to pH=5.0-5.5 with aluminum sulfate. Bacteria populations were measured 3 hours after pulp slurry inoculation. Final total halogen concentrations were measured at the time of bacterial population plating by sample centrifuging followed by standard DPD analyses. Biocides were neutralized with sodium thiosulfate prior to plating.
(§2) Prereaction of DMH with NaOCl as described in Example 1 was not required. The conditions of this experiment were in other respects the same as Example 1. The molar ratio in the pulp slurry was 1:1 NaOCl to DMH.

The subject of data set [2] is P. Aeruginosa and E. Aerogenes. Put plainly: Example 3: bactericidal efficacy in preinoculated pulp slurry samples. The class given is cell-based. The note with it: for Final Bacteria: pulp inoculated 5 minutes prior to biocide. The protocol:
as §1
(§3) The conditions were the same as Example 1 except that the pulp was inoculated with bacteria 5 minutes prior to biocide introduction as opposed to 10 minutes after. Also the NaOCl to DMH mole ratio was increased from 0.25:1 to 1:1.

Data set [3] deals with P. Aeruginosa and E. Aerogenes. Put plainly: Example 1: pulp slurry bactericidal efficacy (modified ASTM E 600-91), biocide added 10 minutes prior to inoculation. Format: cell-based. The conditions noted are these: for Final Bacteria: inoculum 2×10^6 cfu/ml, 3 hours after inoculation. The protocol:
as §1

A short description of data set [4]: Example 5: final total halogen in pulp slurry with N-hydrogen compounds. The conditions noted are these: for % Residual Halogen / Total Halogen Final: NaOCl to N-hydrogen compound 1:1 molar. Format: physicochemical. As to the method:
as §1
(§4) The conditions were the same as those of Example 1. The molar ratio of the NaOCl to N-hydrogen compound was 1:1.

In data set [5] the test system is P. Aeruginosa and E. Aerogenes. The data set is described as follows: Example 5: pulp slurry bactericidal efficacy of NaOCl with N-hydrogen compounds (1:1). The conditions noted are these: for log reduction of bacteria: 5 ppm halogen; for log reduction of bacteria / efficacy enhancement over sodium hypochlorite alone: Example 5; for efficacy enhancement over sodium hypochlorite alone / Final Bacteria: NaOCl to N-hydrogen compound 1:1 molar. Format: cell-based. As to the method:
as §1, §4

In another data set the test system is bacteria. The conditions noted are these: residual chlorine concentrations of 1.6 ppm as Cl2; U.S. Pat. No. 3,328,294; cited from earlier work.
Data set [6] in a line: Example 3: final total halogen in preinoculated pulp slurry. The class given is physicochemical. The note with it: pulp inoculated 5 minutes prior to biocide. The protocol:
as §1, §3

A short description of data set [7]: Example 4: halogen consumption in non-inoculated pulp slurry vs NaOCl:DMH molar ratio. Format: physicochemical. The conditions noted are these: initial total halogen 25.6 ppm as Cl2; pulp slurry not inoculated. As to the method: as §1, §2
The experimental conditions were the same as those of Example 2, except that the pulp slurry was not inoculated with bacteria.

The nature of data set [8]: Example 1: final total halogen in pulp slurry (DPD analyses). The class given is physicochemical. The conditions noted are these: 3 hours after inoculation; for Total Halogen Final: 1.3% aspen pulp slurry pH 5.0-5.5; for % Residual Halogen: pulp slurry pH 5.0-5.5. The protocol:
as §1

Data set [9] deals with P. Aeruginosa and E. Aerogenes. Put plainly: Example 7: pulp slurry bactericidal efficacy of N-halohydantoin compound. The class given is cell-based. The conditions noted are these: conditions of Example 1. As to the method: as §1
(§5) Specifically, Dantochlor®, a commercial halogenated hydantoin containing predominantly dichlorodimethylhydantoin and dichloroethylmethylhydantoin was used. The conditions were the same as those of Example 1.

A short description of data set [10]: Example 2: final total halogen in DMH-treated pulp slurry. Format: physicochemical. The conditions noted are these: NaOCl added to pulp slurry (DMH-treated for 1:1 system). As to the method: as §1, §2
A short description of data set [11]: Example 7: final total halogen in pulp slurry. Format: physicochemical. The note with it: conditions of Example 1. The protocol: as §1, §5
[12] abbreviates: initial total halogen 0.8 ppm as Cl2.
[13] abbreviates: initial total halogen 3.4 ppm as Cl2.
The mark [14] stands for this setting: initial total halogen 16.3 ppm as Cl2.
[15] abbreviates: initial total halogen 1.0 ppm as Cl2.
Where [16] appears, read: initial total halogen 3.0 ppm as Cl2.
[17] abbreviates: initial total halogen 5.0 ppm as Cl2.
Setting [18] is: initial total halogen 7.5 ppm as Cl2.
Where [19] appears, read: initial total halogen 10 ppm as Cl2.
[20] abbreviates: initial total halogen 3 ppm as Cl2.
[21] abbreviates: initial total halogen 5 ppm as Cl2.
Setting [22] is: initial total halogen 15 ppm as Cl2.

In the case of `CC1(C)NC(=O)NC1=O` [DMH, 5,5-dimethylhydantoin], the “increase in efficacy of NaOCl in the presence of DMH” value in data set [1] (3 ppm with DMH vs 5 ppm in its absence, Example 2) is recorded as “twofold”; in data set [3] (1 ppm halogen with DMH equivalent to 5 ppm halogen alone, Example 1), “fivefold”. For the same compound, the “log reduction in bacteria concentration” value in data set [1] (initial halogen concentration 3 ppm, in the presence of DMH, Example 2) amounted to 2 log. In [2] (dosage 0.8 ppm halogen, in the presence of DMH, preinoculated samples, Example 3), the “log reduction of bacteria” value worked out at 3 log.
On to `CCC1(C)NC(=O)NC1=O` (stereo not drawn) [MEH, 5-ethyl-5-methylhydantoin], for which the “mitigation of halogen decomposition” value in data set [4] (compared with cyanuric acid, Example 5) is listed as “greatest mitigation of halogen decomposition”. For the same compound, in data set [5], the “log reduction of bacteria” value is given as 3 log and the “efficacy enhancement over sodium hypochlorite alone” value is listed as “dramatically increased NaOCl efficacy”.
Take `O=S(=O)(O)NCl` [N-chlorosulfamate]: the bacterial concentrations achieved in the data set on bacteria is listed as 10^3 cfu/ml.
Regarding `[Na+].[O-]Cl` [NaOCl, sodium hypochlorite], the “% Residual Halogen” value in [6] (setting [12]) amounted to 1.3%; in data set [6] (setting [13]) it was 1.0%; in [6] (setting [14]), 2.1%; in data set [7] it was 0.4%; in [4] (setting [15]), 0.0%; in data set [4] (setting [16]) it was 0.7%. Moreover, the “% Residual Halogen” value was 0.6% in data set [4] (setting [17]); 0% in data set [8] (setting [15]); 0% in [8] (setting [16]); 0% in data set [8] (setting [17]); 0.5% in data set [8] (setting [18]); 0.8% in data set [8] (setting [19]). The “% Residual Halogen” value was 0.0% in data set [10] (setting [20]); 0.4% in [10] (setting [21]); 0.5% in [10] (setting [18]); 0.4% in data set [10] (setting [19]); 0.7% in data set [10] (setting [22]); 0.4% in data set [11] (setting [17]). In data set [11] (setting [18]), the “% Residual Halogen” value is 1%. Moreover, the “Total Halogen Final” value was found to be 0.01 ppm as Cl2 in data set [6] (setting [12]); 0.03 ppm as Cl2 in [6] (setting [13]); 0.34 ppm as Cl2 in data set [6] (setting [14]); 0.11 ppm as Cl2 in data set [7]; 0.00 ppm as Cl2 in data set [4] (setting [15]); 0.02 ppm as Cl2 in data set [4] (setting [16]). Besides, the “Total Halogen Final” value in data set [4] (setting [17]) is on record as 0.03 ppm as Cl2; in data set [8] (setting [15]), 0.00 ppm as Cl2; in data set [8] (setting [16]), 0.00 ppm as Cl2; in data set [8] (setting [17]), 0.00 ppm as Cl2; in data set [8] (setting [18]), 0.04 ppm as Cl2; in data set [8] (setting [19]), 0.08 ppm as Cl2. Besides, the “Total Halogen Final” value in [10] (setting [20]) was found to be 0.00 ppm as Cl2; in data set [10] (setting [21]), 0.02 ppm as Cl2; in data set [10] (setting [18]), 0.06 ppm as Cl2; in data set [10] (setting [19]), 0.04 ppm as Cl2; in data set [10] (setting [22]) it was 0.11 ppm as Cl2; in data set [11] (setting [17]) it was 0.02 ppm as Cl2. In addition, the “Total Halogen Final” value in [11] (setting [18]) was determined as 0.05 ppm as Cl2. The “Final Bacteria” value in [1] (setting [20]) is reported as 10^5 cfu/ml; in data set [1] (setting [21]), 10^4 cfu/ml; in data set [1] (setting [18]), <10^3 cfu/ml; in [1] (setting [19]) it was <10^3 cfu/ml; in data set [1] (setting [22]), <10^3 cfu/ml; in data set [9] (setting [17]) it was “≦10^3 cfu/ml”. Also, the “Final Bacteria” value in data set [9] (setting [18]) is given as “≦10^3 cfu/ml”; in [5] (setting [15]) it was 10^6 cfu/ml; in data set [5] (setting [16]), 10^5 cfu/ml; in [5] (setting [17]), 10^5 cfu/ml; in data set [2] (setting [12]), 10^4 cfu/ml; in data set [2] (setting [13]), <10^3 cfu/ml. The “Final Bacteria” value is reported as <10^3 cfu/ml in data set [2] (setting [14]); 10^5 cfu/ml in [3] (setting [15]); 10^4 cfu/ml in [3] (setting [16]); “≦10^3 cfu/ml” in data set [3] (setting [17]); “≦10^3 cfu/ml” in data set [3] (setting [18]); “≦10^3 cfu/ml” in data set [3] (setting [19]). The “log reduction of bacteria” value in data set [5] is on record as 1 log.
For the compound `NS(=O)(=O)O` [Sulfamic acid, sulfamic acid], in data set [5], the “efficacy enhancement over sodium hypochlorite alone” value was “no efficacy enhancement”.

The record behind these values is patent USRE39021E1, “Hydantoin-enhanced halogen efficacy in pulp and paper applications” (Lonza Inc., priority 1994, dated 2006).
